Experimental data taken from US20040229246A1, “Diagnostic markers for therapeutic treatment” (Can-Fite Biopharam Ltd., priority 2002, published 2004).

System: PKA and GSK-3β
Assay: Receptor functionality: Western blot of PKA and GSK-3β in B16-F10 melanoma cells
Format: cell-based
Description: To detect the level of expression of the A3AR proteins Western blot analysis was performed. Cells were incubated in the presence and absence of IB-MECA (10 nM), MRS1523 (10 nM), Forskolin (50 nM), 8 Br cAMP (100 μM), Cycloheximide 20 μg/ml or MG 132 (20 nM) for different time periods at 37° C. Cells were then rinsed with ice-cold PBS and transferred to ice-cold lysis buffer (TNN buffer, 50 mM Tris buffer pH=7.5, 150 mM NaCl, NP 40). In the experiment examining the effect of trypsin on A3AR expression, cells were incubated with 0.5 ml of 0.25% trypsin for 5 minutes. The trypsinized cells were washed again with ice-cold PBS, harvested by centrifugation and subjected to lysis in TNN buffer. Cell debris was removed by centrifugation for 10 minutes, at 7500 xg. The supernatant was utilized for Western Blot analysis. Protein concentrations were determined using the Bio-Rad protein assay dye reagent. Equal amounts of the sample (50 μg) were separated by SDS-PAGE, using 12% polyacrylamide gels. The resolved proteins were then electroblotted onto nitrocellulose membranes (Schleicher & Schuell, Keene, NH, USA). Membranes were blocked with 1% bovine serum albumin and incubated with the desired primary antibody (dilution 1:1000) for 24 hours at 4° C. Blots were then washed and incubated with a secondary antibody for 1 hour at room temperature. Bands were recorded using BCIP/NBT color development kit (Promega, Madison, W1, USA). Data presented in the different figures are representative of at least three different experiments.
To test receptor functionality, the protein expression level of PKA and GSK-3β, which are modulated downstream to A3AR activation, was examined. Functional receptor sensitization by IB-MECA was observed after 15 and 60 minutes and was manifested by decreased PKA and increased GSK-3β levels. […] Indeed, the modulatory effect of IB-MECA on PKA and GSK-3β was reversed in the presence of the above agents (FIG. 8a, 8b and 8c).

In the case of `CNC(=O)[C@H]1O[C@@H](n2cnc3c(NCc4cccc(I)c4)ncnc32)[C@H](O)[C@@H]1O` [IB-MECA, 1-deoxy-1-[6[[(3-iodophenyl)methyl]amino]-9H-purine-9-yl]-N-methyl-β-D-ribofura-nuronaminde], the GSK-3β level (after 15 and 60 minutes) was “increased”, the PKA level (after 15 and 60 minutes) was “decreased” and the GSK-3β level (at 30 minutes) was “only slightly increased”. For the same compound, the PKA level (at 30 minutes) was “stabilized”.
